Laboratory results published in PubChem BioAssay AID248 (DTP/NCI, 2004).
“And” between values parts separate entries of the source, which are not always exact repeats. Equal entries are not always repeated. Inconclusive results and toxic doses are left out. No stated cut-off is given here; in the data, active means T/C of 150% or more; inactive means T/C below 125%.

Test system: L1210 leukemia ip in BDF1 mice, survival T/C
Test: NCI In Vivo Anticancer Drug Screen. Data for tumor model L1210 Leukemia (intraperitoneal) in B6D2F1 (BDF1) mice
Conditions: endpoint: mean survival time, higher = longer survival
In short: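 Read-out is survival time, reported as the treated-group measurement over the vehicle-control measurement.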

[1] = dose: 100.0 mg/kg/injection, schedule: Q04DX003 (ip), vehicle: Klucel (hydroxypropylcellulose) (HPC)
[2] = dose: 200.0 mg/kg/injection, schedule: Q04DX003 (ip), vehicle: Klucel (hydroxypropylcellulose) (HPC)
[3] = dose: 400.0 mg/kg/injection, schedule: Q04DX003 (ip), vehicle: Klucel (hydroxypropylcellulose) (HPC)
[4] = dose: 100.0 mg/kg/injection, schedule: Q04DX003 (ip), vehicle: saline
[5] = dose: 200.0 mg/kg/injection, schedule: Q04DX003 (ip), vehicle: saline
[6] = dose: 100.0 mg/kg/injection, schedule: Q01DX001 (ip), vehicle: saline
[7] = dose: 50.0 mg/kg/injection, schedule: Q04DX003 (ip), vehicle: saline
[8] = dose: 100.0 mg/kg/injection, schedule: Q01DX009 (ip), vehicle: Klucel (hydroxypropylcellulose) (HPC)
[9] = dose: 200.0 mg/kg/injection, schedule: Q01DX009 (ip), vehicle: Klucel (hydroxypropylcellulose) (HPC)

Measured: T/C

Cc1c2cnccc2c(C)c2c1c1ccccc1n2CCCCCC#N
inactive: [1] 100 % of control | [2] 97 % of control | [3] 100 % of control

Cn1cnc([N+](=O)[O-])c1Cl
inactive: dose: 50.0 mg/kg/injection, schedule: Q01DX009 (ip), vehicle: saline 102 % of control | dose: 100.0 mg/kg/injection, schedule: Q01DX009 (ip), vehicle: saline 103 % of control | [4] 94 % of control | dose: 200.0 mg/kg/injection, schedule: Q01DX009 (ip), vehicle: saline 92 % of control | [5] 102 % of control

Oc1ccccc1C=Nc1cccc2c(N=Cc3ccccc3O)cccc12
inactive: dose: 50.0 mg/kg/injection, schedule: Q04DX003 (ip), vehicle: other 89 % of control | [6] 86 % of control | dose: 100.0 mg/kg/injection, schedule: Q04DX003 (ip), vehicle: other 86 % of control | dose: 200.0 mg/kg/injection, schedule: Q01DX001 (ip), vehicle: saline 88 % of control | dose: 200.0 mg/kg/injection, schedule: Q04DX003 (ip), vehicle: other 86 % of control | dose: 400.0 mg/kg/injection, schedule: Q01DX001 (ip), vehicle: saline 86 % of control

Cc1c2cc3c(c1O)C(=O)CC(O3)c1ccc(O)c(c1)-c1ccc(O)c(c1)C(=O)OCC1OC(O2)C(O)C(O)C1O (configuration not stated)
inactive: dose: 0.13 mg/kg/injection, schedule: Q01DX009 (ip), vehicle: Klucel (hydroxypropylcellulose) (HPC) 98 % of control | dose: 0.25 mg/kg/injection, schedule: Q01DX009 (ip), vehicle: Klucel (hydroxypropylcellulose) (HPC) 95 % of control | dose: 0.5 mg/kg/injection, schedule: Q01DX009 (ip), vehicle: Klucel (hydroxypropylcellulose) (HPC) 101 % of control | dose: 1.0 mg/kg/injection, schedule: Q01DX009 (ip), vehicle: Klucel (hydroxypropylcellulose) (HPC) 114 % of control

CCN(CC)CC(O)Cn1cnc2cncnc21 (configuration not stated)
inactive: dose: 25.0 mg/kg/injection, schedule: Q04DX003 (ip), vehicle: saline 98 % of control | [7] 107 % of control | [4] 98 % of control

CCC[CH2][Pb]([CH2]CCC)([CH2]CCC)[O]C(=O)CCl
inactive: dose: 1.56 mg/kg/injection, schedule: Q01DX009 (ip), vehicle: Klucel (hydroxypropylcellulose) (HPC) 98 % of control | dose: 3.13 mg/kg/injection, schedule: Q01DX009 (ip), vehicle: Klucel (hydroxypropylcellulose) (HPC) 104 % of control | dose: 6.25 mg/kg/injection, schedule: Q01DX009 (ip), vehicle: Klucel (hydroxypropylcellulose) (HPC) 94 % of control and 98 % of control | dose: 12.5 mg/kg/injection, schedule: Q04DX003 (ip), vehicle: Klucel (hydroxypropylcellulose) (HPC) 101 % of control | dose: 25.0 mg/kg/injection, schedule: Q04DX003 (ip), vehicle: Klucel (hydroxypropylcellulose) (HPC) 100 % of control

O=[N+]([O-])c1ccc(C2N=C(c3ccccc3)CS2(=O)=O)cc1 (configuration not stated)
inactive: [4] 97 % of control | [5] 95 % of control | dose: 400.0 mg/kg/injection, schedule: Q04DX003 (ip), vehicle: saline 93 % of control

OCCN1CCN(c2ccccc2)CC1
inactive: [7] 104 % of control | [4] 113 % of control | [5] 102 % of control

NC(C(=O)O)C(N)(CC(=O)O)C(=O)O (configuration not stated)
inactive: dose: 100.0 mg/kg/injection, schedule: Q04DX002 (ip), vehicle: saline with Tween-80 94 % of control | dose: 200.0 mg/kg/injection, schedule: Q04DX002 (ip), vehicle: saline with Tween-80 94 % of control | dose: 400.0 mg/kg/injection, schedule: Q04DX002 (ip), vehicle: saline with Tween-80 105 % of control

C=CCN(CC=C)CCNc1cc(C)nc(/N=C(\N)Nc2ccc(Cl)c(Cl)c2)n1
inactive: dose: 75.0 mg/kg/injection, schedule: Q01DX001 (ip), vehicle: other 92 % of control | dose: 150.0 mg/kg/injection, schedule: Q01DX001 (ip), vehicle: other 92 % of control | dose: 300.0 mg/kg/injection, schedule: Q01DX001 (ip), vehicle: other 92 % of control

CC1(C)N=C(N)N=C(N)N1c1ccc(C#N)cc1
inactive: [6] 100 % of control

c1ccc2c(c1)ccc1[s+]cccc12
inactive: dose: 100.0 mg/kg/injection, schedule: Q04DX003 (ip), vehicle: acetone 100 % of control | dose: 200.0 mg/kg/injection, schedule: Q04DX003 (ip), vehicle: acetone 105 % of control

OC[P+](CO)(CO)CO
inactive: dose: 25.0 mg/kg/injection, schedule: Q04DX002 (ip), vehicle: saline 113 % of control | dose: 50.0 mg/kg/injection, schedule: Q04DX002 (ip), vehicle: saline 103 % of control | dose: 100.0 mg/kg/injection, schedule: Q04DX002 (ip), vehicle: saline 100 % of control and 109 % of control

CC(=O)Nc1ccc(Br)cc1[N+](=O)[O-]
inactive: dose: 100.0 mg/kg/injection, schedule: Q01DX009 (ip), vehicle: acetone 92 % of control | dose: 200.0 mg/kg/injection, schedule: Q01DX009 (ip), vehicle: acetone 106 % of control | dose: 400.0 mg/kg/injection, schedule: Q01DX009 (ip), vehicle: acetone 101 % of control

O=c1[nH]c2ccccc2c(=O)n1C1CCCCC1
inactive: dose: 25.0 mg/kg/injection, schedule: Q01DX009 (ip), vehicle: water 96 % of control | dose: 50.0 mg/kg/injection, schedule: Q01DX009 (ip), vehicle: water 94 % of control | dose: 100.0 mg/kg/injection, schedule: Q01DX009 (ip), vehicle: water 103 % of control | dose: 200.0 mg/kg/injection, schedule: Q01DX009 (ip), vehicle: water 98 % of control | dose: 400.0 mg/kg/injection, schedule: Q01DX009 (ip), vehicle: water 101 % of control

CC1(C)N=C(N)N=C(N)N1c1cccc(OCc2cccc(NC(=O)CBr)c2)c1
inactive: dose: 5.0 mg/kg/injection, schedule: Q01DX001 (ip), vehicle: saline 106 % of control | dose: 10.0 mg/kg/injection, schedule: Q01DX001 (ip), vehicle: saline 103 % of control | dose: 20.0 mg/kg/injection, schedule: Q01DX001 (ip), vehicle: saline 103 % of control | dose: 40.0 mg/kg/injection, schedule: Q01DX001 (ip), vehicle: saline 97 % of control

NNC(=O)NO
inactive: dose: 33.0 mg/kg/injection, schedule: Q01DX009 (ip), vehicle: saline 114 % of control | dose: 75.0 mg/kg/injection, schedule: Q01DX001 (ip), vehicle: saline 101 % of control | dose: 150.0 mg/kg/injection, schedule: Q01DX001 (ip), vehicle: saline 103 % of control

CN(C)C(=O)Oc1c(Cl)cccc1Cl
inactive: [8] 92 % of control | [1] 97 % of control | [9] 97 % of control | [2] 96 % of control | [3] 89 % of control

Nc1nc(N)nc(-c2ccccc2NN=Nc2ccccc2[N+](=O)[O-])n1
inactive: [8] 103 % of control | [9] 97 % of control | dose: 400.0 mg/kg/injection, schedule: Q01DX009 (ip), vehicle: Klucel (hydroxypropylcellulose) (HPC) 100 % of control
